{
  "source": "patent US20160130592A1",
  "about": "“Soybean Transformation Using HPPD Inhibitors as Selection Agents” (Bayer CropScience AG, priority 2010, published 2016)",
  "key": {"[1]": {"system": "untransformed cells", "assay": "Selection with DKN as selectable agent in Shoot Induction medium, cotyledonary node method", "format": "cell-based, soybean", "conditions": "DKN 2 ppm in Shoot Induction medium", "description": "The cotyledonary node method used for transforming soybean has been described by Zhang et al., 1999, Clemente et al. 2000, Xing et al. 2000.\nAfter washing, the explants are placed (5 per plate) on the Shoot Initiation Medium, inclined at 45°, with the cotyledonary node area imbedded in the medium and upwards. The Shoot Initiation step lasts 1 month (24° C. 16/8 photoperiod) with a transfer after 15 days in which the hypocotyl is eliminated to keep only the differentiating area and the cotyledon.\n1×B5 major salts, 1×B5 minor salts, 28 mg/L Ferrous, 38 mg/L NaEDTA, 30 g/L Sucrose, 0.59 g/L MES, and 7 g/L Noble agar (pH 5.7). Filter sterilized 1×B5 vitamins, BAP (1.11 mg/L), Timentin (50 mg/L), Cefotaxime (200 mg/L), Vancomycin (50 mg/L) and the selection agent are added to this medium after autoclaving.\nTransgenic events (cv Thorne) were generated for construct carrying hppd gene alone (e.i. pFCO117) or in combination with pdh gene (e.i. pFCO48), using DKN as selection agent, as described in example 1. Selection agent DKN (diketonitrile) was added in SI (Shoot Induction medium) at a final concentration of 2 ppm and for about 4 week. When explants were transferred to SE (Shoot Elongation medium), selection was removed. […] Visual selectable marker dramatically decreases selection time, as untransformed material can be identified and eliminated in as little as 4 weeks after transformation."}, "[2]": {"system": "untransformed tissue", "assay": "Visual selection with IFT as selectable agent", "format": "cell-based, soybean", "conditions": "FIG. 1; transformed material becomes green", "source_text": "FIG. 1: Visual selection with IFT as selectable agent."}, "[3]": {"conditions": "about 4 weeks, cv Thorne, in vitro"}},
  "data": [
    {"smiles": "CS(=O)(=O)c1cc(C(F)(F)F)ccc1C(=O)C(C#N)C(=O)C1CC1", "note": "(stereo not shown) [DKN, 2-cyano-3-cyclopropyl-1-(2-methylsulphonyl-4-trifluoromethylphenyl)-propane-1,3-dione]", "values": [
      {"measurement": "effect on chlorophyll synthesis", "setting": "[1]; [3]", "result": "prevents chlorophyll synthesis"},
      {"measurement": "lethality for untransformed cells", "setting": "[1]; [3]", "result": "does not kill untransformed cells"},
      {"measurement": "phenotype of untransformed tissue", "setting": "[1]; transformed material becomes green", "result": "white, elongated shoots"}
    ]},
    {"smiles": "CS(=O)(=O)c1cc(C(F)(F)F)ccc1C(=O)c1cnoc1C1CC1", "note": "[IFT, (5-cyclopropyl-4-isoxazolyl)[2-(methylsulfonyl)-4-(trifluoromethyl)phenyl]methanone]", "values": [
      {"measurement": "phenotype of untransformed tissue", "setting": "[2]", "result": "white, elongated shoots"}
    ]}
  ]
}
